According to paper PMC6125430, “Structural Analysis of Redox-sensing Transcriptional Repressor Rex from Thermotoga maritima” (Scientific Reports, 2018):

Key:
TmRex = molecular target: T1, TmRex (Thermotoga maritima, UniProt Q9WY16); assay: X-ray crystallography of the complex; type: binding; details: 1:1 per C-terminal domain
T1 construct: gene rex1; full-length gene (pET28b NdeI/XhoI), N-terminal His6 tag (tag removal told only for SeMet protein), E. coli BL21(DE3) Star pLysS; homodimer; primers encode N-terminal MAEKIPK

[1] = molecular target: the molecule itself; assay: crystal structure; apo TmRex, native protein, 2.0 Å; sitting-drop vapour diffusion at 296 K, 200 mM potassium chloride, 20% (w/v) PEG 3,350; four subunits (two homodimers) in the asymmetric unit

NC(=O)C1=CN([C@@H]2O[C@H](COP(=O)(O)OP(=O)(O)OC[C@H]3O[C@@H](n4cnc5c(N)ncnc54)[C@H](O)[C@@H]3O)[C@@H](O)[C@H]2O)C=CC1 [NADH]
X-ray crystallography of the complex (TmRex; co-crystallization with 1 mM NADH, 2.45 A, closed form): NADH-bound TmRex crystals were grown by co-crystallization

NC(=O)c1ccc[n+]([C@@H]2O[C@H](COP(=O)(O)OP(=O)(O)OC[C@H]3O[C@@H](n4cnc5c(N)ncnc54)[C@H](O)[C@@H]3O)[C@@H](O)[C@H]2O)c1 [NAD^+]
X-ray crystallography of the complex (TmRex; apo crystals soaked with 1 mM NAD+ for 10 h, 2.2 A, open form): The structure of NAD^+-bound TmRex was refined with crystallographic Rwork and Rfree values

B1: Redox-sensing transcriptional repressor Rex from Thermotoga maritima (natural protein, UniProt Q9WY16 1-208, looked up)
chain: MAEKIPKPVSKRLVSYYMCLERLLDEGVEVVSSEELARRLDLKASQIRKDLSYFGEFGKRGVGYNVEHLYDAIGEILGVKKEWKLVVVGAGNIGRAVANYTVMKEKGFRIIGIFDSDPSKIGKEAAPGLTVSDVSELEKFVEEHGVEIGVIAVPAEHAQEIAERLEKAGIKGILNFAPVKIKVSVPVENIDITASLRVLTFEIVRRNS
notes: Rex (TM0169) of Thermotoga maritima, rex gene amplified from genomic DNA with primers from the ATG start codon to the stop codon; residues 1-208 (N-terminal domain 1-77, linker loop 78-83, C-terminal domain 84-208); Cloned into pET28b(+) with NdeI and XhoI; for the native protein in the deposited structures no removal is told; also called TmRex; TM0169; source: E. coli BL21 (DE3) star pLysS, …
binding result [1]: binds
